Test results from patent US20260219274A1, “POLYOL SWEETNERS AND CARDIOVASCULAR AND THROMBOTIC EVENT RISK” (THE CLEVELAND CLINIC FOUNDATION, priority 2023, published 2026).

Experiments:
[1] = Xylitol intervention study: postprandial plasma xylitol levels and elimination; format: in vivo
Procedure: A third xylitol intervention study (clinicaltrials.gov number: NCT04731363) included 10 prospectively recruited healthy volunteers (35±11 years of age, 50% male, nonsmokers without CVD, hypertension, or diabetes). Fasting (overnight) subjects were provided a standardized artificially sweetened beverage (300 mL) containing 30 g of xylitol dissolved in water with instructions to rapidly consume the drink (within 2 minutes). In the first part of xylitol ingestion studies, pharmacokinetics studies focused on post-prandial plasma levels and time course of elimination of xylitol. For LC-MS/MS analysis of xylitol, serial venous blood and urine sampling was performed at baseline, 30 min, 1 h, 4 h, 6 h and 24 h to establish postprandial peak levels and the time course of xylitol elimination in the first 4 subjects. After we noticed that xylitol levels were rapidly cleared with postprandial xylitol peak levels at 30 min after ingestion in all 4 subjects, we streamlined our protocol in the interest of being both practical and less demanding on subjects, and sampled blood and urine at baseline and after 30 min for the remainder of subjects.
Stable-isotope-dilution LC-MS/MS was developed to specifically quantify xylitol in human and mouse plasma, urine and feces (fecal pellets were dissolved in water and supernatant subjected to LC-MS/MS). Ice cold methanol (800 μL) and internal standard (^13C2-arabitol) were added to the plasma samples (20 μL) or urine (20 μL) previously diluted in MQ water, followed by vortexing and centrifuging (21,000×g; 4° C. for 15 min). The clear supernatant (800 μL) was transferred into a clean, labeled glass tubes (Borosilicate glass 12×75 mm) and dried in a speed vacuum concentrator (Speed vac plus, SC210, Thermo Sevant). Acetylation was used since xylitol is poorly ionizable in order to achieve better retention on the reverse phase column and separation from other structural isomers as well as better ionization to achieve better sensitivity. The dry residue was reconstituted in acetic anhydride (100 μL) and 4-Dimethylaminopyridine (DMAP) in pyridine (100 μl; 1 mg/mL), sealed with safety caps, vortexed and heated (45 min at 80° C.) followed with drying under nitrogen. Dried residues were dissolved in HCl in water (0.1 M; 0.5 mL) and extracted with ethylacetate (2.0 mL). Ethylacetate layer was transferred into a clean glass tube (Borosilicate glass 12×75 mm) and dried under nitrogen. The dry residue was reconstituted in ammonium formate in a mixture of methanol:water (100 μL; 50:50 v/v with 10 mM ammonium formate), tubes were vortexed and liquid was transferred to glass vials with micro-insets and caped. LC-MS/MS analysis was performed on a chromatographic system consisting of two Shimadzu LC-30 AD pumps (Nexcra X2), a CTO 20AC oven operating at 30° C., and a SIL-30 AC-MP autosampler in tandem with a triple quadruple mass spectrometer (8050 series, Shimadzu Scientific Instruments, Inc., Columbia, MD, USA). For chromatographic separation, a Kinetex C18 column (50 mm×2.1 mm; 2.6 μm) (Cat #00B-4462-AN, Phenomenex, Torrance, CA) was used. […] Electrospray ionization in the positive mode was used with multiple reaction monitoring (MRM) for detection of endogenous and stable isotope labeled internal standards. The following transitions were used: m/z 380 [M^+NH4]^+ […] for xylitol, arabitol and ribitol and m/z 382 [M+NH4]^+→305 for [^13C2]-arabitol. The following ion source parameters were applied: nebulizing gas flow, 3 L/min; heating gas flow, 10 L/min; interface temperature, 300° C.; desolvation line temperature, 250° C.; heat block temperature, 400° C.; and drying gas flow, 10 L/min. Accuracy and precision of the method to quantify xylitol (separated from its structural isomers arabitol and ribitol) were assessed by a standard addition method of pure synthetic standard into different plasma pools. […]

human whole blood = assay: Imaging flow cytometry of platelet-leukocyte aggregates in whole blood; format: cell-based; conditions: pre-incubation with physiological levels of xylitol, TRAP6 7.5 μM
Procedure: Imaging flow cytometry was performed on an Amnis ImageStreamX MK II two-camera system using anti-CD45 AF488, anti-CD41 AF647 and anti-CD62P-PE. Details and the gating strategy are described in supplemental methods.
Whole blood collected from consented healthy volunteers was incubated with xylitol (30 or 100 μM) or vehicle for 30 min. Where indicated, the samples were then stimulated with 7.5 μM TRAP6 for 10 min. Blood samples were then incubated with anti-CD45 AF488 (Catalogue #FAB1430G, R&D Systems, MN, USA), anti-CD41 AF647 (Catalogue #303726, Biolegend, San Diego, CA, USA) and anti-CD62P-PE (Catalogue #555524, BD PharMingen, San Diego, CA, USA) for 20 min at room temperature in the dark. After gentle red blood cell lysis using VersaLyse Lysing solution (Catalogue #A09777, Beckman Coulter, Brea, California, USA), cells were gently spun down and resuspended in HBSS-BSA. Platelet leucocyte aggregates were measured on an Amnis ImageStreanX MK II two-camera system (Luminex, Austin, TX, USA). Data were analyzed using Amnis IDEAS software (Luminex, Austin, TX, USA).
IDEAS analysis was performed as follows. Gating out of focus events using Gradient RMS in the brightfield image. Gating on CD45+ events using the Intensity and Max Pixel features. Elimination of false positive CD45 events and selection of only true CD45+ cells using Intensity vs. Area of CD45+. […]

## OC[C@@H](O)[C@H](O)[C@@H](O)CO [xylitol]
[1]; both sexes, human, plasma, oral, 30 min following ingestion of 30 g xylitol, read-out: plasma levels of xylitol, median [IQR]
  concentration at 30 min: 312000 nM
[1]; both sexes, human, plasma, oral, 4 h after 30 g xylitol, read-out: plasma xylitol levels, median [IQR]
  concentration at 4 h: 1870 nM
[1]; both sexes, human, plasma, oral, 6 h after 30 g xylitol, read-out: plasma xylitol levels, median [IQR]
  concentration at 6 h: 670 nM
[1]; both sexes, human, plasma, 30 g xylitol oral
  half-life: 12.6 min
[1]; first 4 subjects
  time of postprandial xylitol peak levels: 30 min
[1]; healthy volunteers
  time to return of postprandial plasma levels to near baseline: ≤ 6 h
[1]; oral ingestion
  oral absorption in humans: readily absorbed
Human whole blood
  TRAP6 stimulated platelet-leukocyte aggregates: dose-dependent increase
